The results in this text go back to US6514965B1, “Substituted 1-benzazepines and derivatives thereof” (Antex Pharma Inc., priority 1999, dated 2003).

Broadly, the melting point is the temperature of the solid-liquid transition.

System in one data set: not given
Assay: not given
Conditions: not given
In turn, `CCOC(=O)C1CCc2ccc(OC)cc2NC1=O` (racemic) [Example 3, 3(R,S)-Ethoxycarbonyl-8-methoxy-2,3,4,5-tetrahydro-1H-1-benzazepine-2-one] had a melting point of 89 to 91 °C. Same read-out and setting: the figure for `CCN1C(=O)C(C(=O)O)CCc2ccc(OC)cc21` (racemic) [Example 5, 3(R,S)-Carboxyl-1-ethyl-8-methoxy-2,3,4,5-tetrahydro-1H-1-benzazepine-2-one] is 120 to 121 °C; for `COc1ccc2c(c1)NC(=O)C(C(=O)OC(C)(C)C)CC2` (racemic) [Example 11, 3(R,S)-tert-Butoxycarbonyl-8-methoxy-2,3,4,5-tetrahydro-1H-1-benzazepine-2-one] it is 145 to 147 °C; for `CCN1C(=O)C(C(=O)OC(C)(C)C)CCc2ccc(OC)cc21` (racemic) [Example 12, 3(R,S)-tert-Butoxycarbonyl-1-ethyl-8-methoxy-2,3,4,5-tetrahydro-1H-1-benzazepine-2-one] it is 132 to 133 °C.

`CCN1C(=O)C(C(=O)OC(C)(C)C)CCc2cc(Br)c(OC)cc21` (racemic) [Example 13, 7-Bromo-3(R,S)-tert-butoxycarbonyl-1-ethyl-8-methoxy-2,3,4,5-tetrahydro-1H-1-benzazepine-2-one] yielded a melting point of 131 to 132 °C. On the same count and under the same terms, the same measure for `CCN1C(=O)C(C(=O)O)CCc2cc(N3CCNCC3)c(OC)cc21.Cl` (racemic) [Example 15, 3(R,S)-Carboxyl-1-ethyl-8-methoxy-7-(piperazin-1-yl)-2,3,4,5-tetrahydro-1H-1-benzazepine-2-one Hydrochloride]: 173 to 176 °C (dec.); for `CCN1C(=O)C(C(=O)OC(C)(C)C)C=Cc2ccc(OC)cc21` (racemic) [Example 16, 3(R,S)-tert-Butoxycarbonyl-1-ethyl-8-methoxy-2,3-dihydro-1H-1-benzazepine-2-one]: 173 to 174 °C; for `CCN1C(=O)C(C(=O)O)CCc2cc(Br)c(OC)cc21` (racemic) [Example 17, 7-Bromo-3(R,S)-carboxyl-1-ethyl-8-methoxy-2,3,4,5tetrahydro-1H-1-benzazepine-2-one]: 188 to 189 °C (dec.). On the same count and under the same terms, the figure for `CCN1C(=O)C(C(=O)OC(C)(C)C)CCc2cc(N3CCNCC3)c(OC)cc21` (racemic) [Example 18, 3(R,S)-tert-Butoxycarbonyl-1-ethyl-8-methoxy-7-(piperazin-1-yl)-2,3,4,5-tetrahydro-1H-1-benzazepine-2-one] is 165 °C (dec.). Still for that read-out and setting: the figure for `COc1ccc2c(c1)N(C(=O)OC(C)(C)C)C(=O)C(C(=O)OC(C)(C)C)CC2` (racemic) [Example 23, 1-tert-Butoxycarbonyl-3(R,S)-tert-butoxycarbonyl-8-methoxy-2,3,4,5-tetrahydro-1H-1-benzazepine-2-one] is 91 to 92 °C. Consider `CCN1C(=O)C(Br)(C(=O)OC)CCc2cc(Br)c(OC)cc21` (racemic) [Example 27, 3,7-Dibromo-1-ethyl-3(R,S)-methoxycarbonyl-8-methoxy-2,3,4,5-tetrahydro-1H-1-benzazepine-2-one], for which the melting point is 71 to 73 °C (dec.).

`COc1cc2c(cc1Br)CCC(C(=O)OC(C)(C)C)C(=O)N2Cc1cccc(F)c1` (racemic) [Example 30, 7-Bromo-3(R,S)-tert-butoxycarbonyl-1-(3-fluorobenzyl)-8-methoxy-2,3,4,5-tetrahydro-1H-1-benzazepine-2-one] showed a melting point of 146 to 148 °C. Still for that read-out and setting: the figure for `COc1cc2c(cc1Br)CCC(C(=O)OC(C)(C)C)C(=O)N2` (racemic) [Example 32, 7-Bromo-3(R,S)-tert-butoxycarbonyl-8-methoxy-2,3,4,5-tetrahydro-1H-1-benzazepine-2-one] is 207 to 208 °C. The same measure, in the same setting: the same measure for `COc1ccc2c(c1)NC(=O)CCC2` [Example 2, 8-Methoxy-2,3,4,5-tetrahydro-1H-1-benzazepine-2-one]: 105 to 106 °C; for `CCN1C(=O)CCCc2cc(Br)c(OC)cc21` [Example 9, 7-Bromo-1-ethyl-8-methoxy-2,3,4,5-tetrahydro-1H-1-benzazepine-2-one]: 133 to 135 °C; for `COc1cc2c(cc1Br)CCCC(=O)N2` [Example 24, 7-Bromo-8-methoxy-2,3,4,5-tetrahydro-1H-1-benzazepine-2-one]: 180 to 182 °C. On the same count and under the same terms, the figure for `O=C1CCCc2ccc(O)cc2N1` [Example 33, 8-Hydroxy-2,3,4,5-tetrahydro-1H-1-benzazepine-2-one] is 226 to 227 °C.

Another data set has as its system bacteria. The experiment in a line: MIC, broth dilution method (antibacterial activity). The data set is classed as cell-based. As to conditions: optical density of organisms with and without test compound, bacterial species not stated. The method, then:
Antibacterial activity can be determined by several standard methods well known by those skilled in the art, including disc diffusions methods, broth dilution minimal inhibitory concentration (MIC) methods, etc., including the detailed method outlined below.
MIC, Broth Dilution Method
Cultures of bacteria are initially brought up from the freezer stocks onto chocolate agar plates by streaking a loop-full, then incubated for 18 hours at 35-37° C. in a 5% CO2 incubator.
Five to 10 colonies are picked from the chocolate agar plate for subculture to Brain-Heart Infusion (BHI) broth or Mueller Hinton broth or BHI containing 4% serum and incubated as described.
Evaluate the optical density of the organisms with and without the test compound. The optical density of the organisms in the presence of an active compound will be less than the optical density of the same organism untreated. The activity of the compounds is described as either negative or the lowest concentration inhibiting growth. The results are depicted in Table III, where +/− represents the least activity and ++++ represents the greatest activity.
A general note: Broth dilution looks for growth in wells or tubes with falling amounts of substance.
Take `COc1cc2c(cc1N1CCN(C(=O)OCc3ccccc3)CC1)CCC(C(=O)OC(C)(C)C)C(=O)N2Cc1cccc(F)c1` (racemic) [Example 31, 7-[(4-Benzyloxycarbonyl)piperazin-1-yl]-3(R,S)-tert-butoxycarbonyl-1-(3-fluorobenzyl)-8-methoxy-2,3,4,5-tetrahydro-1H-1-benzazepine-2-one]: the “Antibacterial Activity” value is reported as “++++”.

Turning to `CCN1C(=O)CCCc2cc(N3CCN(C)CC3)c(OC)cc21` [Example 10], the “Antibacterial Activity” value is given as “+/−”. The same measure, in the same setting: the same measure for `CC(C)(C)[Si](C)(C)Oc1ccc2c(c1)NC(=O)CCC2` [Example 36, 8-(tert-butyldimethylsilyloxy)-2,3,4,5-tetrahydro-1H-1-benzazepine-2-one]: “++++”.
